From patent publication US20250145592A1 (NICO Therapeutics, Inc., priority 2022, published 2025) come the findings set out here.

Like-named read-outs stand apart in the source and are kept apart here.

The experiment concerns IL-1β secretion in THP-1 cells (NLRP3). The experiment can be described thus: IL-1β secretion assay in PMA-differentiated THP-1 cells stimulated with LPS and nigericin (ELISA readout). Format: cell-based. The conditions noted are these: IL-1β ELISA. On the procedure: Compounds as provided herein were tested in the following assay. Cell culture medium employed contained RPMI 1640 medium (89%), FBS (10%), Pen/Strep (1%), and 2-mercaptoethanol (0.05 mM). Freezing medium was made up of 90% FBS and 10% DMSO. THP-1 cells were removed from the liquid nitrogen and placed into a 37° C. water bath to thaw, until signs of ice dissipated. The cells were then added to 9 mL of warm cell culture medium and centrifuged for 5 minutes at 1000 rpm. The supernatant was discarded, and the cells were resuspended in new cell culture medium. THP-1 cells were then split and cultured in the cell culture medium, being passaged every 2-3 days with the cell density will be maintained between 5×10^5 and 1.5×10^6 viable cells/mL.
To freeze, cells were resuspended with fresh freezing medium, adjusting the cell density to 5×10^6 cells/mL. The cell suspension was partitioned into 1 mL aliquots per vial, and the vials were transferred to a −80° C. freezer. After one day at −80° C., the cell vials were transferred to liquid nitrogen freezer for storage.
PMA was dissolved in DMSO to make a stock solution at 5 mg/ml and stored in 10 μl aliquots at −20° C. for single use. PMA is added to normal growth medium. LPS was diluted with 1 mL of water solution to provide a 1 mg/mL stock solution and stored in 15 μl aliquots at −20° C. for single use. Nigericin is diluted in ice cold 100% ethanol to 5 mg/ml (6.7 mM) and stored in 75 μL aliquots at −20° C. for single use. Serum-free media contains RPMI 1640 medium (99%), Pen/Strep (1%), and 2-mercaptoethanol (0.05 mM). The two control conditions used to qualify and normalize test compound dose-response curves were as follows: High Control=25 ng/mL LPS, […], 0.5% DMSO, Low Control=25 ng/mL, LPS, 0.5% DMSO.
THP-1 cells were diluted to provide a suspension at a concentration of 1.0×10^6 cells/mL with the total volume of suspension required to enable the desired number of assay plates. The growth media was supplemented with PMA (5 ng/mL final concentration) and the cells were incubated at 37° C. under a humidified atmosphere of 5% CO2 for 40 h.
All media was carefully aspirated from each culture flask. The cells were washed carefully with 1×DPBS. The cells were then briefly digested with trypsin LE for 5 minutes at 23° C. and immediately resuspended in cell growth media. After resuspension, the cells were centrifuged at 1000 rpm for 3 minutes and the supernatant was discarded. The cells were resuspended in DPBS and once again centrifuged at 1000 rpm for 5 minutes. The supernatant was discarded and the cell pellet was resuspended in serum-free media supplemented with LPS (25 ng/mL final concentration) to enable the distribution of 30K THP-1 cells within 45 μL of media into each well of 384-well PDL-coated plates. The 384-well plates were then incubated at 37° C. under a humidified atmosphere of 5% CO2 for 2 h. Following this period, test compounds were dispensed by Tecan across the desired concentration range with all wells normalized to a final 0.5% DMSO concentration. The plates were then then incubated at 37° C. under a humidified atmosphere of 5% CO2 for 1 h. Following this period, 5 μL of the 5 mg/mL nigericin stock solution was added to each of the appropriate wells and plates were centrifuged at 1000 rpm for 30 seconds. The plates were the immediately reintroduced to the incubator at 37° C. under a humidified atmosphere of 5% CO2 for 2 h. After this time, 35 μL/well of supernatant was collected and transferred into v-bottom plate and centrifuged at 1000 rpm for 1 minute. These supernatant aliquots were analyzed using an IL-Iβ detection kit as described below. If needed, the test samples could be snap frozen and stored at −80° C. until analyzed.
To prepare each ELISA plate, capture antibody (mAb Mt175) was diluted with PBS to a final concentration of […] and then 20 µL of this solution was added to each well of the ELISA plate.
Each plate was allowed to incubate overnight at 4° C. […]
(In general: ELISA stands for enzyme-linked immunosorbent assay.)

[1] abbreviates: Table 3, LPS 25 ng/mL + nigericin, read-out: Activity (IC50 class).
The mark [2] stands for this setting: Table 4, LPS 25 ng/mL + nigericin, read-out: Activity (IC50).
The mark [3] stands for this setting: Homo sapiens, THP-1, Table 3, LPS 25 ng/mL + nigericin, read-out: Activity (IC50 class).
The mark [4] stands for this setting: Homo sapiens, THP-1, Table 4, LPS 25 ng/mL + nigericin, read-out: Activity (IC50).

The IC50 is the concentration at which inhibition is half-maximal.

`O=C(Cn1nc(OC2CC3(C2)CC3(F)F)c2cc(Br)ccc2c1=O)Nc1nc2ccccn2n1` (single isomer, unassigned) [Example 26, 2-[6-bromo-4-(2,2-difluorospiro[2.3]hexan-5-yl)oxy-1-oxophthalazin-2-yl]-N-([1,2,4]triazolo[1,5-a]pyridin-2-yl)acetamide]: the IC50 under setting [1] is less than 1000 nM and the IC50 under setting [2] was found to be 596 nM.

For `CC[C@@H]1CC1Oc1nn(CC(=O)Nc2ncc(F)cn2)c(=O)c2ccc(Br)cc12` (single isomer, unassigned) [Example 35, 2-[6-bromo-4-[cis-2-ethylcyclopropyl]oxy-1-oxophthalazin-2-yl]-N-(5-fluoropyrimidin-2-yl)acetamide], the IC50 was less than 1000 nM under setting [3] and 368 nM under setting [4].

For the molecule `CC[C@@H]1CC1Oc1nn(CC(=O)Nc2ncc(F)cn2)c(=O)c2ccc(Br)cc12` (single isomer, unassigned) [Example 36, 2-[6-bromo-4-[cis-2-ethylcyclopropyl]oxy-1-oxophthalazin-2-yl]-N-(5-fluoropyrimidin-2-yl)acetamide], the IC50 under setting [1] is less than 1000 nM and the IC50 under setting [2] turned out to be 397 nM.

Turning to `C[C@@H]1CC1Oc1nn(CC(=O)Nc2ncc(F)cn2)c(=O)c2ccc(Br)cc12` (stereo in doubt) [Example 52, 2-[6-bromo-4-[cis-2-methylcyclopropyl]oxy-1-oxophthalazin-2-yl]-N-(5-fluoropyrimidin-2-yl)acetamide], the IC50 is less than 1000 nM under setting [3] and 924 nM under setting [4].

Take `O=C(Cn1nc(OC2CC3(C2)CC(F)(F)C3)c2cc(Br)ccc2c1=O)Nc1ncc(F)cn1` [Example 1, 2-[6-bromo-4-(2,2-difluorospiro[3.3]heptan-6-yl)oxy-1-oxophthalazin-2-yl]-N-(5-fluoropyrimidin-2-yl)acetamide]: the IC50 runs as follows: under setting [3], less than 1000 nM; under setting [4], 10 nM.

Consider `O=C(Cn1nc(OC2CC3(CC3)C2)c2cc(Br)ccc2c1=O)Nc1ncc(F)cn1` [Example 4, 2-(6-bromo-1-oxo-4-spiro[2.3]hexan-5-yloxyphthalazin-2-yl)-N-(5-fluoropyrimidin-2-yl)acetamide], for which the IC50 was less than 1000 nM under setting [3] and 33 nM under setting [4].

On to `COc1nn(CC(=O)Nc2ncc(F)cn2)c(=O)c2ccc(C3(F)CC3)cc12` [Example 11, 2-[6-(1-fluorocyclopropyl)-4-methoxy-1-oxophthalazin-2-yl]-N-(5-fluoropyrimidin-2-yl)acetamide], for which the 50% inhibitory concentration (IC50) under setting [3] is less than 1000 nM and the IC50 under setting [4] was 136 nM.

Take `O=C(Cn1nc(OC2CC2)c2cc(C3(F)CC3)ccc2c1=O)Nc1ncc(F)cn1` [Example 12, 2-[4-cyclopropyloxy-6-(1-fluorocyclopropyl)-1-oxophthalazin-2-yl]-N-(5-fluoropyrimidin-2-yl)acetamide]: the IC50 under setting [3] was less than 1000 nM and the IC50 under setting [4] worked out at 152 nM.

Consider `O=C(Cn1nc(OC2CC3(C2)CC(F)(F)C3)c2cc(C3(F)CC3)ccc2c1=O)Nc1ncc(F)cn1` [Example 15, 2-[4-(2,2-difluorospiro[3.3]heptan-6-yl)oxy-6-(1-fluorocyclopropyl)-1-oxophthalazin-2-yl]-N-(5-fluoropyrimidin-2-yl)acetamide], for which the IC50 was less than 1000 nM under setting [3] and 19 nM under setting [4].

`C[C@]1(O)C[C@@H](NC(=O)Cn2nc(OC3CC4(C3)CC(F)(F)C4)c3cc(Br)ccc3c2=O)C1` [Example 16, 2-[6-bromo-4-(2,2-difluorospiro[3.3]heptan-6-yl)oxy-1-oxophthalazin-2-yl]-N-(cis-3-hydroxy-3-methylcyclobutyl)acetamide]: the IC50 runs as follows: under setting [3], less than 1000 nM; under setting [4], 137 nM.

For the molecule `C[C@]1(O)C[C@@H](NC(=O)Cn2nc(OC3CC3)c3cc(Br)ccc3c2=O)C1` [Example 23, 2-(6-bromo-4-cyclopropyloxy-1-oxophthalazin-2-yl)-N-(cis-3-hydroxy-3-methylcyclobutyl)acetamide], the IC50 was less than 1000 nM under setting [3] and 312 nM under setting [4].

As for `COc1nn(CC(=O)N[C@H]2C[C@@](C)(O)C2)c(=O)c2ccc(Br)cc12` [Example 24, 2-(6-bromo-4-methoxy-1-oxophthalazin-2-yl)-N-(cis-3-hydroxy-3-methylcyclobutyl)acetamide], the IC50 under setting [3] was less than 1000 nM and the half-maximal inhibitory concentration (IC50) under setting [4] amounted to 183 nM.

As to `O=C(Cn1nc(OC2CC2)c2cc(Br)ccc2c1=O)Nc1nc2ccccn2n1` [Example 27, 2-(6-bromo-4-cyclopropyloxy-1-oxophthalazin-2-yl)-N-([1,2,4]triazolo[1,5-a]pyridin-2-yl)acetamide], the IC50 under setting [3] is less than 1000 nM and the IC50 under setting [4] was 235 nM.

For `O=C(Cn1nc(OC2CC2)c2cc(I)ccc2c1=O)Nc1ncc(F)cn1` [Example 28, 2-(4-cyclopropyloxy-6-iodo-1-oxophthalazin-2-yl)-N-(5-fluoropyrimidin-2-yl)acetamide], the IC50 is less than 1000 nM under setting [3] and 21 nM under setting [4].

As for `Cc1cnc(NC(=O)Cn2nc(OC3CC4(CC4)C3)c3cc(Br)ccc3c2=O)nc1` [Example 29, 2-(6-bromo-1-oxo-4-spiro[2.3]hexan-5-yloxyphthalazin-2-yl)-N-(5-methylpyrimidin-2-yl)acetamide], the IC50 by setting is: under setting [3], less than 1000 nM; under setting [4], 26 nM.

For the molecule `N#Cc1cnc(NC(=O)Cn2nc(OC3CC4(CC4)C3)c3cc(Br)ccc3c2=O)nc1` [Example 30, 2-(6-bromo-1-oxo-4-spiro[2.3]hexan-5-yloxyphthalazin-2-yl)-N-(5-cyanopyrimidin-2-yl)acetamide], the half-inhibitory concentration (IC50) is less than 1000 nM under setting [3] and 50 nM under setting [4].

Turning to `O=C(Cn1nc(OC2CC3(CC3)C2)c2c(F)c(C3CC3)ccc2c1=O)Nc1ncc(F)cn1` [Example 31, 2-(6-cyclopropyl-5-fluoro-1-oxo-4-spiro[2.3]hexan-5-yloxyphthalazin-2-yl)-N-(5-fluoropyrimidin-2-yl)acetamide], the IC50 is, setting by setting: under setting [3], less than 1000 nM; under setting [4], 66 nM.

For `COc1nn(CC(=O)Nc2ncc(F)cn2)c(=O)c2ccc(C3CC3)c(F)c12` [Example 32, 2-(6-cyclopropyl-5-fluoro-4-methoxy-1-oxophthalazin-2-yl)-N-(5-fluoropyrimidin-2-yl)acetamide], the IC50 was less than 1000 nM under setting [3] and 183 nM under setting [4].

`COc1nn(CC(=O)Nc2ncc(F)cn2)c(=O)c2ccc(C3CC3)c(OC)c12` [Example 33, 2-(6-cyclopropyl-4,5-dimethoxy-1-oxophthalazin-2-yl)-N-(5-fluoropyrimidin-2-yl)acetamide]: the half-inhibitory concentration (IC50) was less than 1000 nM under setting [3] and 625 nM under setting [4].

As to `O=C(Cn1nc(OC2CC2)c2cc(Cl)ccc2c1=O)Nc1ncc(F)cn1` [Example 34, 2-(6-chloro-4-cyclopropyloxy-1-oxophthalazin-2-yl)-N-(5-fluoropyrimidin-2-yl)acetamide], the IC50 runs as follows: under setting [3], less than 1000 nM; under setting [4], 408 nM.

Consider `O=C(Cn1nc(OC2CC2)c2cc(OC(F)F)ccc2c1=O)Nc1ncc(F)cn1` [Example 37, 2-[4-cyclopropyloxy-6-(difluoromethoxy)-1-oxophthalazin-2-yl]-N-(5-fluoropyrimidin-2-yl)acetamide], for which the IC50 reads like this: under setting [3], less than 1000 nM; under setting [4], 424 nM.
